Reference: publication PMC12396409, “Screening and hit evaluation of a microbial metabolite library against the pathogenic Plasmodium falciparum and Toxoplasma gondii parasites” (International Journal for Parasitology: Drugs and Drug …, 2025)
Read-outs that look alike come from different tables or passages of the source.

Tests used:
[1] = test system: T. gondii RH strain (RH-Tub-eYFP) tachyzoites; experiment: microbe, parasite or virus in culture; type: cell-based, Toxoplasma gondii; conditions: for percent parasite growth at 2 µg/mL: Toxoplasma gondii
[2] = test system: P. falciparum 3D7 parasites; experiment: P. falciparum growth inhibition assay, 1-cycle (72 h treatment), SYBR DNA staining (library screen at 2 μg/mL and dose-response); type: cell-based, Plasmodium falciparum; conditions: for activity at 2 µg/mL: Plasmodium falciparum
[3] = test system: P. falciparum 3D7 parasites; experiment: P. falciparum growth inhibition assay, 2-cycle (120 h treatment), delayed-death screen and dose-response; type: cell-based, Plasmodium falciparum; conditions: for activity at 2 µg/mL: Plasmodium falciparum
[4] = T. gondii, 72 h, screen at 2 μg/mL, replicate 1
[5] = T. gondii, 72 h, screen at 2 μg/mL, replicate 2
[6] = P. falciparum, 72 h, screen at 2 μg/mL, replicate 1
[7] = P. falciparum, 72 h, screen at 2 μg/mL, replicate 2
[8] = P. falciparum, 120 h, screen at 2 μg/mL, replicate 1
[9] = P. falciparum, 120 h, screen at 2 μg/mL, replicate 2
[10] = T. gondii RH, 72 h, library screen at 2 μg/mL, % growth, replicate 1
[11] = T. gondii RH, 72 h, library screen at 2 μg/mL, % growth, replicate 2
[12] = P. falciparum 3D7, 72 h, library screen at 2 μg/mL, % growth, replicate 1
[13] = P. falciparum 3D7, 72 h, library screen at 2 μg/mL, % growth, replicate 2
[14] = P. falciparum 3D7, 120 h, library screen at 2 μg/mL, % growth, replicate 1
[15] = P. falciparum 3D7, 120 h, library screen at 2 μg/mL, % growth, replicate 2
[16] = 72 h, library screen at 2 μg/mL, 72 h, % growth, replicate 1, read-out: Tg_72h_%Growth_Rep1
[17] = 72 h, library screen at 2 μg/mL, 72 h, % growth, replicate 2, read-out: Tg_72h_%Growth_Rep2
[18] = 3D7, 72 h, library screen at 2 μg/mL, 72 h, % growth, replicate 1, read-out: Pf_72h_%Growth_Rep1
[19] = 3D7, 72 h, library screen at 2 μg/mL, 72 h, % growth, replicate 2, read-out: Pf_72h_%Growth_Rep2
[20] = 3D7, 120 h, library screen at 2 μg/mL, 120 h, % growth, replicate 1, read-out: Pf_120h_%Growth_Rep1
[21] = 3D7, 120 h, library screen at 2 μg/mL, 120 h, % growth, replicate 2, read-out: Pf_120h_%Growth_Rep2
[22] = 3D7, library screen at 2 μg/mL, 72 h, % growth, replicate 1, read-out: Pf_72h_%Growth_Rep1
[23] = 3D7, library screen at 2 μg/mL, 72 h, % growth, replicate 2, read-out: Pf_72h_%Growth_Rep2
[24] = 3D7, library screen at 2 μg/mL, 120 h, % growth, replicate 1, read-out: Pf_120h_%Growth_Rep1
[25] = 3D7, library screen at 2 μg/mL, 120 h, % growth, replicate 2, read-out: Pf_120h_%Growth_Rep2
[26] = library screen at 2 μg/mL, 72 h, % growth, replicate 1
[27] = library screen at 2 μg/mL, 72 h, % growth, replicate 2
[28] = library screen at 2 μg/mL, 120 h, % growth, replicate 1
[29] = library screen at 2 μg/mL, 120 h, % growth, replicate 2

Compound: C[C@@]12c3ccc4c(c3C(=O)c3occ(c31)[C@@H](O)C[C@H]2O)CCC4=O [Demethoxyviridiol]
- Tg_72h_%Growth_Rep1 [1, 4]: 264.14%
- Tg_72h_%Growth_Rep2 [1, 5]: 123.20%
- Pf_72h_%Growth_Rep1 [2, 6]: 73.11%
- Pf_72h_%Growth_Rep2 [2, 7]: 74.92%
- Pf_120h_%Growth_Rep1 [3, 8]: 76.39%
- Pf_120h_%Growth_Rep2 [3, 9]: 74.74%

Compound: O=C1CCCC2C3CC(CN12)C1CCCCN1C3 (stereo not shown) [BIA-L1951]
- Tg_72h_%Growth_Rep1 [1, 10]: 86.61%
- Tg_72h_%Growth_Rep2 [1, 11]: 107.54%
- Pf_72h_%Growth_Rep1 [2, 12]: 95.10%
- Pf_72h_%Growth_Rep2 [2, 13]: 93.40%
- Pf_120h_%Growth_Rep1 [3, 14]: 173.37%
- Pf_120h_%Growth_Rep2 [3, 15]: 101.50%

Compound: CCCCC[C@@H](O)[C@H]1C(=O)O[C@H](C)[C@@H](O)/C=C/C=C/C=C/C=C/C=C(\C)[C@@H](O)C[C@H](O)C[C@H](O)C[C@H](O)C[C@H](O)C[C@H](O)C[C@@H]1O [Filipin III]
- percent parasite growth at 2 µg/mL [1, 16]: 120%
- percent parasite growth at 2 µg/mL [1, 17]: 104%
- activity at 2 µg/mL [2, 18]: 83.6%
- activity at 2 µg/mL [2, 19]: 89.2%
- activity at 2 µg/mL [3, 20]: 97.4%
- activity at 2 µg/mL [3, 21]: 99.7%

Compound: CC(C)[C@@H]1NC(=O)[C@H](Cc2ccc(O)cc2)NC1=O [Cyclo(L-Tyr-L-Val)]
- Tg_72h_%Growth_Rep1 [1, 4]: 164.57%
- Tg_72h_%Growth_Rep2 [1, 5]: 103.47%
- Pf_72h_%Growth_Rep1 [2, 6]: 84.64%
- Pf_72h_%Growth_Rep2 [2, 7]: 82.94%
- Pf_120h_%Growth_Rep1 [3, 8]: 98.73%
- Pf_120h_%Growth_Rep2 [3, 9]: 89.51%

Compound: COc1cc(/C=C/C(=O)O)cc(OC)c1O [Sinapic acid]
- Tg_72h_%Growth_Rep1 ([1]; T. gondii, 72 h, parasite screen 2 μg/mL, % growth, replicate 1): 101.84%
- Tg_72h_%Growth_Rep2 ([1]; T. gondii, 72 h, parasite screen 2 μg/mL, % growth, replicate 2): 75.80%
- Mean ([2]; P. falciparum, 72 h, 2 μg/mL, mean of both replicates, growth (% of control)): 45.98
- Pf_72h_%Growth_Rep1 ([2]; P. falciparum, 72 h, parasite screen 2 μg/mL, % growth, replicate 1): 90.37%
- Pf_72h_%Growth_Rep2 ([2]; P. falciparum, 72 h, parasite screen 2 μg/mL, % growth, replicate 2): 1.58%
- Pf_120h_%Growth_Rep1 ([3]; P. falciparum, 120 h, parasite screen 2 μg/mL, % growth, replicate 1): 115.97%
- Pf_120h_%Growth_Rep2 ([3]; P. falciparum, 120 h, parasite screen 2 μg/mL, % growth, replicate 2): -9.79%

Compound: Cc1cc(O)c(C=O)c2c1C(=O)Oc1c(COC(=O)/C=C/C(=O)O)c(O)c(C(=O)O)c(C)c1O2 [Fumarprotocetraric acid]
- percent parasite growth at 2 µg/mL [1, 16]: 126%
- percent parasite growth at 2 µg/mL [1, 17]: 103%
- activity at 2 µg/mL [2, 22]: 84.6%
- activity at 2 µg/mL [2, 23]: 90.2%
- activity at 2 µg/mL [3, 24]: 102%
- activity at 2 µg/mL [3, 25]: 100%

Compound: COc1cc2c(c3oc(=O)c4c(c13)CCC4=O)[C@@H]1CCO[C@@H]1O2 [Aflatoxin B2]
- Tg_72h_%Growth_Rep1 [1]: 112.94%
- Tg_72h_%Growth_Rep2 [1]: 92.34%
- Pf_72h_%Growth_Rep1 [2]: 82.21%
- Pf_72h_%Growth_Rep2 [2]: 80.10%
- Pf_120h_%Growth_Rep1 [3]: 93.01%
- Pf_120h_%Growth_Rep2 [3]: 84.17%

Compound: CCC[C@H]1CC2=C(C[C@@H](CC)CC3=C1C(=O)OC3=O)C(=O)OC2=O [Byssochlamic acid]
- percent parasite growth at 2 µg/mL ([1]; 72 h, T. gondii, 72 h, screen at 2 μg/mL, replicate 1, read-out: Tg_72h_%Growth_Rep1): 92.1%
- percent parasite growth at 2 µg/mL ([1]; 72 h, T. gondii, 72 h, screen at 2 μg/mL, replicate 2, read-out: Tg_72h_%Growth_Rep2): 94.4%
- activity at 2 µg/mL ([2]; 3D7, P. falciparum, 72 h, screen at 2 μg/mL, replicate 1, read-out: Pf_72h_%Growth_Rep1): 89.8%
- activity at 2 µg/mL ([2]; 3D7, P. falciparum, 72 h, screen at 2 μg/mL, replicate 2, read-out: Pf_72h_%Growth_Rep2): 83.3%
- activity at 2 µg/mL ([3]; 3D7, P. falciparum, 120 h, screen at 2 μg/mL, replicate 1, read-out: Pf_120h_%Growth_Rep1): 129%
- activity at 2 µg/mL ([3]; 3D7, P. falciparum, 120 h, screen at 2 μg/mL, replicate 2, read-out: Pf_120h_%Growth_Rep2): 88.1%

Compound: Elaiophylin
- Tg_72h_%Growth_Rep1 [1, 26]: -0.18%
- Tg_72h_%Growth_Rep2 [1, 27]: 0.99%
- Pf_72h_%Growth_Rep1 [2, 26]: 6.63%
- Pf_72h_%Growth_Rep2 [2, 27]: 7.41%
- Pf_120h_%Growth_Rep1 [3, 28]: 18.08%
- Pf_120h_%Growth_Rep2 [3, 29]: 22.72%

Compound: CCC(=O)CCCCC[C@@H]1NC(=O)[C@H]2CCCCN2C(=O)[C@H]([C@@H](C)CC)NC(=O)[C@H](Cc2cn(OC)c3ccccc23)NC1=O [Apicidin]
- percent parasite growth at 2 µg/mL [1, 16]: 6.14%
- percent parasite growth at 2 µg/mL [1, 17]: 0.42%
- activity at 2 µg/mL [2, 18]: 1.42%
- activity at 2 µg/mL [2, 19]: 5.38%
- activity at 2 µg/mL [3, 20]: 2.31%
- activity at 2 µg/mL [3, 21]: -15.8%

Compound: O=c1[nH]c2ccccc2c(-c2cccc(O)c2)c1O [Viridicatol]
- Tg_72h_%Growth_Rep1 [1, 4]: 112.17%
- Tg_72h_%Growth_Rep2 [1, 5]: 75.26%
- Pf_72h_%Growth_Rep1 [2, 6]: 94.32%
- Pf_72h_%Growth_Rep2 [2, 7]: 122.09%
- Pf_120h_%Growth_Rep1 [3, 8]: 110.38%
- Pf_120h_%Growth_Rep2 [3, 9]: 105.05%

Compound: C[C@@]1(CO)[C@H](O)CC[C@@]2(C)[C@H]1CC[C@H]1C[C@@H]3C[C@@]12CC[C@]3(O)CO [Aphidicolin]
- percent parasite growth at 2 µg/mL [1, 16]: 1.91%
- percent parasite growth at 2 µg/mL [1, 17]: 0.58%
- activity at 2 µg/mL [2, 22]: 7%
- activity at 2 µg/mL [2, 23]: 4.32%
- activity at 2 µg/mL [3, 24]: 10.5%
- activity at 2 µg/mL [3, 25]: -6.36%

Compound: C/C=C\C=C\[C@@H]1O[C@](O)([C@H](CC)C(=O)NC/C=C/C=C(\C)[C@@H](OC)[C@@H](C)[C@H]2C[C@@H](O)[C@@H](/C=C/C=C/C=C/C(=O)O)O2)[C@H](O)[C@H](O)C1(C)C [A 83016F]
- Tg_72h_%Growth_Rep1 [1, 26]: 147.54%
- Tg_72h_%Growth_Rep2 [1, 27]: 91.91%
- Pf_72h_%Growth_Rep1 [2, 26]: 83.31%
- Pf_72h_%Growth_Rep2 [2, 27]: 85.46%
- Pf_120h_%Growth_Rep1 [3, 28]: 83.40%
- Pf_120h_%Growth_Rep2 [3, 29]: 76.05%

Compound: CO[C@H]1C[C@@H]2CC[C@@H](C)[C@@](O)(O2)C(=O)C(=O)N2CCCC[C@H]2C(=O)O[C@H]([C@H](C)C[C@@H]2CC[C@@H](OP(C)(C)=O)[C@H](OC)C2)CC(=O)[C@H](C)/C=C(\C)[C@@H](O)[C@@H](OC)C(=O)[C@H](C)C[C@H](C)/C=C/C=C/C=C/1C [Ridaforolimus]
- percent parasite growth at 2 µg/mL ([1]; 72 h, T. gondii, 72 h, parasite screen 2 μg/mL, % growth, replicate 1, read-out: Tg_72h_%Growth_Rep1): 128%
- percent parasite growth at 2 µg/mL ([1]; 72 h, T. gondii, 72 h, parasite screen 2 μg/mL, % growth, replicate 2, read-out: Tg_72h_%Growth_Rep2): 84.7%
- activity at 2 µg/mL ([2]; 3D7, 72 h, P. falciparum, 72 h, parasite screen 2 μg/mL, % growth, replicate 1, read-out: Pf_72h_%Growth_Rep1): 68.5%
- activity at 2 µg/mL ([2]; 3D7, 72 h, P. falciparum, 72 h, parasite screen 2 μg/mL, % growth, replicate 2, read-out: Pf_72h_%Growth_Rep2): 69.8%
- activity at 2 µg/mL ([3]; 3D7, 120 h, P. falciparum, 120 h, parasite screen 2 μg/mL, % growth, replicate 1, read-out: Pf_120h_%Growth_Rep1): 75.1%
- activity at 2 µg/mL ([3]; 3D7, 120 h, P. falciparum, 120 h, parasite screen 2 μg/mL, % growth, replicate 2, read-out: Pf_120h_%Growth_Rep2): 55.3%

Compound: COc1cc2c(oc(=O)c3cc(C)cc(OC)c32)c2c([C@H]3O[C@@H]([C@@H](C)O)[C@H](O)[C@H]3O)ccc(O)c12 [BIA-G1034]
- Tg_72h_%Growth_Rep1 [1, 10]: 123.33%
- Tg_72h_%Growth_Rep2 [1, 11]: 101.31%
- Pf_72h_%Growth_Rep1 [2, 12]: 90.69%
- Pf_72h_%Growth_Rep2 [2, 13]: 120.87%
- Pf_120h_%Growth_Rep1 [3, 14]: 90.16%
- Pf_120h_%Growth_Rep2 [3, 15]: 122.56%
